What is called Ki is a dissociation constant, usually derived from enzyme kinetics or from competition with a known ligand. Lower therefore signals higher affinity. Usually inhibition stands for the share of the control response that was lost under treatment. As usually defined, the IC50 is the point on the concentration scale where inhibition reaches its midpoint. The low end stands for higher potency, the high end for lower potency.

Assay [1] concerns the target T1, Prothrombin (Homo sapiens, UniProt P00734). The experiment in a line: Binding affinity against thrombin.
Assay [2] has as its target T2, Serine protease 1 (Homo sapiens, UniProt P07477). The assay is described as follows: Tested for the inhibition of trypsin at a concentration of 100 uM.
Assay [3] addresses T1, Prothrombin. The experiment in a line: Inhibitory activity against human thrombin.
For assay [4], the target named is T2, Serine protease 1. The experiment in a line: Inhibitory activity against human trypsin.
The target of assay [5] is T2, Serine protease 1. The experiment in a line: Compound was tested for the binding affinity against trypsin.

T2 sequence (P07477 whole entry): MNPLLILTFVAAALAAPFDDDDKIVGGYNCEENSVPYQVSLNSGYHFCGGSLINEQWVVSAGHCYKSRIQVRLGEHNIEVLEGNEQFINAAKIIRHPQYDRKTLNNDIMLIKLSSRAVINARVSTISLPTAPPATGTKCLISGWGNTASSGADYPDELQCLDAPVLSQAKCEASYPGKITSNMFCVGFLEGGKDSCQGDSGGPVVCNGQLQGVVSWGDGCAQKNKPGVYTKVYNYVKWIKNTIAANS

The compound `CCC(C)[C@H]1C(=O)N(CCCc2ccccc2)CC(=O)N1CC(=O)N[C@@H](CC1CCCN(C(=N)N)C1)C(=O)c1nccs1` (stereo partly specified) registered a Ki in assay [1] of 200 nM. This compound came in with an inhibition in assay [2] of 67%. The compound also displayed an IC50 in assay [3] of 3400 nM.
With `N=C(N)N1CCCC(C[C@H](NC(=O)CN2C(=O)CN(CCCc3ccccc3)C(=O)C2C(c2ccccc2)c2ccccc2)C(=O)c2nccs2)C1` (stereo partly specified), the IC50 in assay [4] came out at 9700 nM; in assay [3] it was 750 nM.
Compound `CCCC[C@H]1C(=O)N(CCCc2ccccc2)CC(=O)N1CC(=O)N[C@@H](CC1CCCN(C(=N)N)C1)C(=O)c1nccs1` (stereo partly specified) displayed a Ki in assay [1] of 98 nM. In addition, the IC50 amounted to 42700 nM in assay [4] and 1600 nM in assay [3].
In the case of `N=C(N)NCCC[C@H](NC(=O)CN1C(=O)CN(CCCc2ccccc2)C(=O)[C@@H]1Cc1ccccc1)C(=O)c1nccs1`, the figures for the IC50 in assay [4] and in assay [3] were 90 nM and 130 nM, respectively.
Regarding `N=C(N)N1CCCC(C[C@H](NC(=O)CN2C(=O)CN(CCCc3ccccc3)C(=O)[C@@H]2CCc2ccccc2)C(=O)c2nccs2)C1` (stereo partly specified), affinity in assay [1] was put at a Ki of 105 nM. Further, the IC50 in assay [4] amounted to 29000 nM; in assay [3], 590 nM.
Consider `N=C(N)N1CCCC(C[C@H](NC(=O)CN2C(=O)CN(CCCc3ccccc3)C(=O)[C@@H]2Cc2cccnc2)C(=O)c2nccs2)C1` (stereo partly specified), for which the inhibition in assay [2] was 40%. This compound also had an IC50 in assay [3] of 1000 nM.
For the compound `N=C(N)N1CCCC(C[C@H](NC(=O)CN2C(=O)CN(CCCc3ccccc3)C(=O)[C@@H]2Cc2ccc3ccccc3c2)C(=O)c2nccs2)C1` (stereo partly specified), the Ki in assay [1] turned out to be 30 nM; in assay [5] it was 13.5 nM. Further, the half-inhibitory concentration (IC50) in assay [4] is 27000 nM; in assay [3], 45 nM.
Compound `CC(C)C[C@H]1C(=O)N(CCCc2ccccc2)CC(=O)N1CC(=O)N[C@@H](CC1CCCN(C(=N)N)C1)C(=O)c1nccs1` (stereo partly specified) yielded a Ki in assay [1] of 165 nM. For the same compound, in assay [2], the inhibition amounted to 69%. The compound also yielded an IC50 in assay [3] of 4300 nM.
In turn, `N=C(N)N1CCCC(C[C@H](NC(=O)CN2C(=O)CN(CCCc3ccccc3)C(=O)[C@@H]2Cc2ccc(Cl)cc2)C(=O)c2nccs2)C1` (stereo partly specified) had a Ki in assay [1] of 40 nM. Further, the IC50 was 33400 nM in assay [4] and 170 nM in assay [3].
`N=C(N)N1CCCC(C[C@H](NC(=O)CN2C(=O)CN(CCCc3ccccc3)C(=O)[C@@H]2CC2CCCCC2)C(=O)c2nccs2)C1` (stereo partly specified) came in with an inhibition constant (Ki) in assay [1] of 75 nM. Moreover, the IC50 worked out at 18500 nM in assay [4] and 430 nM in assay [3].
`N=C(N)N1CCC[C@@H](C[C@H](NC(=O)CN2C(=O)CN(CCCc3ccccc3)C(=O)[C@@H]2Cc2ccccc2)C(=O)c2nccs2)C1`: the affinity in assay [1] corresponds to a Ki of 24 nM. In addition, in assay [2], the inhibition was determined as 80%. The compound further had a half-maximal inhibitory concentration (IC50) in assay [3] of 240 nM.
For `N=C(N)N1CCCC(C[C@H](NC(=O)CN2CC(=O)N(CCCc3ccccc3)CC2=O)C(=O)c2nccs2)C1` (stereo partly specified), the Ki in assay [1] amounted to 495 nM. Further, the IC50 was 91200 nM in assay [4] and 4700 nM in assay [3].
The compound `N=C(N)N1CCCC(C[C@H](NC(=O)CN2C(=O)CN(Cc3ccccc3)C(=O)[C@@H]2Cc2ccc3ccccc3c2)C(=O)c2nccs2)C1` (stereo partly specified) came in with an IC50 in assay [4] of 11100 nM.
In assay [1], `C[C@H]1C(=O)N(CCCc2ccccc2)CC(=O)N1CC(=O)N[C@@H](C[C@@H]1CCCN(C(=N)N)C1)C(=O)c1nccs1` returned a Ki of 65 nM. The results for the IC50 in assay [4] and in assay [3] were 24000 nM and 760 nM, respectively.
For `COc1ccc(C[C@H]2C(=O)N(CCCc3ccccc3)CC(=O)N2CC(=O)N[C@@H](CC2CCCN(C(=N)N)C2)C(=O)c2nccs2)cc1` (stereo partly specified) the same measures were 43 nM, 3800 nM and 350 nM.
In the case of `CC(C)[C@H]1C(=O)N(CCCc2ccccc2)CC(=O)N1CC(=O)N[C@@H](CC1CCCN(C(=N)N)C1)C(=O)c1nccs1` (stereo partly specified), the IC50 worked out at 74800 nM in assay [4] and 1800 nM in assay [3].
With `CN1CC(=O)N(CC(=O)N[C@@H](CC2CCCN(C(=N)N)C2)C(=O)c2nccs2)[C@@H](Cc2ccc3ccccc3c2)C1=O` (stereo partly specified), the affinity in assay [1] corresponds to a Ki of 140 nM. The values for the IC50 in assay [4] and in assay [3] were 26600 nM and 1270 nM, respectively.

The record behind these values is ChEMBL document CHEMBL1132668, “The design of potent and selective inhibitors of thrombin utilizing a piperazinedione template: part 1” (Bioorg Med Chem Lett, 1999).
